The values that follow come from article PMC12113998, “Exploring Multivalent Architectures for Binding and Stabilization of N-Acetylgalactosamine 6-Sulfatase” (Molecules, 2025).

Several values for one entry are separate records, joined by “and”; a condition that tells them apart may be missing. Identical values can stand only once. Like-named read-outs stand apart in the source and are kept apart here. Marks after values point to notes of the source that are not given here.

The nature of data set [1]: 1H-NMR stability study of the acetal in D2O at pH* 4.3, 37 °C. Format: physicochemical. Conditions: after 19 h. The procedure:
The presence of pH-sensitive acetal groups in β-D-glucose-derived dendrimers led us to question whether these compounds would remain stable under the biological conditions of the screening assay. To assess their stability under the experimental conditions, we synthesized 2-(nonyloxy)tetrahydro-2H-pyran acetal following the literature procedure as a control and conducted an NMR stability study. The NMR sample was prepared in D2O at pH* 4.3, where pH* refers to the pH measured in a D2O solution using an H2O-calibrated pH meter. […] The hydrolysis of the 2-(nonyloxy)tetrahydro-2H-pyran acetal yielded nonan-1-ol and 5-hydroxypentanal. The compound stability at pH* 4.3, assessed by ¹H-NMR experiments, is reported in the Supporting Information.

Data set [2] addresses T1, N-acetylgalactosamine-6-sulfatase (GALNS) (Homo sapiens, UniProt P34059).
T1 construct: Isolated leukocytes were disrupted by sonication; from tissue; host or cells: human leukocytes from healthy donors (sonicated homogenate)
T1 sequence (P34059 27-522): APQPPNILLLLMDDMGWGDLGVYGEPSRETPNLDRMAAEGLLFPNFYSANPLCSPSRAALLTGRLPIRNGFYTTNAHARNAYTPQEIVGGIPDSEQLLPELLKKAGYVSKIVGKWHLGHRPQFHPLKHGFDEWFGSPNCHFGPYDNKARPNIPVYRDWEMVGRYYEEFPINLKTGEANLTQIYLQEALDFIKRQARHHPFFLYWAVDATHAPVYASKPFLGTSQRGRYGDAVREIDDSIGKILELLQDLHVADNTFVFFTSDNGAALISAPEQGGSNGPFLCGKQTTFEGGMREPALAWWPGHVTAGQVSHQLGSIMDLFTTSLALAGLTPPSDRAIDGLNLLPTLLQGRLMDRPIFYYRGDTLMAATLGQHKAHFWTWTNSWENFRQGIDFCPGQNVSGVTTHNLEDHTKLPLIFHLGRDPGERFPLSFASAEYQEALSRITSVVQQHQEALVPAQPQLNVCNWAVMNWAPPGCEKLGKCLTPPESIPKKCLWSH
The arrangement: method as in doi:10.1039/C6RA15806D. Conditions: cited from earlier work.

Data set [3] concerns the target T1, N-acetylgalactosamine-6-sulfatase (GALNS). Briefly: GALNS inhibition in leukocyte homogenate from healthy donors (4-methylumbelliferyl-β-galactoside-6-sulfate substrate, fluorescence). It is filed as biochemical. Conditions: for inhibition at 1000 µM: pH 4.3, 1 mM inhibitor. The procedure:
A preliminary biological screening of the newly synthesized multivalent compounds at 1 mM inhibitor concentration was performed against GALNS in leukocytes isolated from healthy donors. Enzymatic assays were performed in triplicate by incubating leukocyte homogenate, compound, and substrate (4-methylumbelliferyl-β-galactoside-6-sulfate.Na) in Na-acetate/acetic acid buffer (pH 4.3) at 37 °C for 17 h, followed by the addition of β-galactosidase from Aspergillus oryzae and further incubation to release 4-methylumbelliferone. The fluorescence was measured, and the inhibition percentages were calculated relative to the control. The results are summarized in Table 1, Table 2, Table 3 and Table 4, along with new inhibition data toward GALNS of multivalent inhibitors whose synthesis was reported previously by our group (23, 26, 30, 51, 52–54). For compounds showing poor to negligible inhibitory activity, only the GALNS inhibition percentage at 1 mM was reported.
Enzymatic assays towards human GALNS in leukocytes isolated from healthy donors.
All experiments on biological materials were performed in accordance with the ethical standards of the institutional research committee and with the 1964 Helsinki Declaration and its later amendments. In keeping with ethical guidelines, all blood and cell samples were obtained for storage and analysed only after written informed consent of the patients (and/or their family members) was obtained, using a form approved by the local Ethics Committee (Assigned code: Lysolate “Late -onset Lysosomal Storage Disorders (LSDs) in the differential diagnosis of neurodegenerative diseases: development of new diagnostic procedures and focus on potential pharmacological chaperones (PCs).” Project ID code: 16774_bio, 5 May 2020, Comitato Etico Regionale per la Sperimentazione Clinica della Regione Toscana, Area Vasta Centro, Florence, Italy). Control and patient samples were anonymized and used only for research purposes.
A preliminary biological screening of compounds at 1 mM was performed towards GALNS in leukocytes isolated from healthy donors (controls). Isolated leukocytes were disrupted by sonication, and a micro BCA protein assay kit (Sigma–Aldrich) was used to determine the total protein amount for the enzymatic assay, according to the manufacturer instructions. Enzyme activity was measured by setting the reaction in 0.2 mL tubes and performing the experiments in triplicates as follows. Compound solution (3 µL), 4.29 μg/μL leukocyte homogenate 1:5 (7 μL) and 20 µL of 4-methylumbelliferyl-β-galactoside-6-sulfate.Na substrate solution (6.66mM) in Na-Acetate/acetic acid buffer (0.1 M/0.1 M, pH 4.3) containing 0.1 M NaCl, 0.02% (w/v) NaN3 and 5 mM Pb-acetate were incubated for 17 h at 37 °C. After step one, the tubes were placed on an ice cooler and the reaction was stopped by addition of 5 µL of Na-phosphate buffer (0.9 M, pH 4.3) containing 0.02 % (w/v) of NaN3 and by efficient mixing with vortex. Then, 10 µL of β-galactosidase from Aspergillus oryzae (β-Gal-A-10U) were added to each sample and samples were incubated for 2 h at 37°C. At the end of this period the tubes were placed on an ice cooler and the samples were transferred in a cooled flat –bottomed 96 well plate and the reaction was immediately stopped with 2 00 µL of NaHCO3/Na2CO3 buffer (0.5 M/0.5 M pH 10.7) containing 0.025% (w/v) of Triton X -100. Fluorescence was measured in a SpectraMax M2 microplate reader (Molecular-Devices) using a 365 nm excitation wavelength and a 435 nm emission wavelength. Percentage of GALNS inhibition was given with respect to the control (without compound).
Experiments were performed in triplicate, and the mean ± S. D. was calculated.
Figure S52. GALNS activity in the absence Figure S53. GALNS activity in the absence (Ctrl) and presence of scaffold 12 at a 1 mM (Ctrl) and presence of the new multivalent […]
The corresponding calculated inhibition of the main text) at a 1 mM concentration in […]

In the next data set the test system is GALNS. Conditions: cited from earlier work.
Another data set relates to rhGALNS. The arrangement: method as in PMID 31905715. Conditions: preliminary studies; cited from earlier work.
Where [4] appears, read: calculated considering 35 as the monovalent reference compound.
[5] abbreviates: human leukocyte extracts, pH 4.3, 37 °C, 17 h.

Take `CCCCCCCCCOC1CCCCO1` (centres unmarked) [2-(nonyloxy)tetrahydro-2H-pyran acetal, 2-(nonyloxy)tetrahydro-2H-pyran]: in data set [1], the “stability at pH* 4.3 by 1H-NMR” value is reported as “remained stable”.

With `O=C(NC(COCc1cn(CCCCCCN2C[C@H](O)[C@H](O)[C@H]2CO)nn1)(COCc1cn(CCCCCCN2C[C@H](O)[C@H](O)[C@H]2CO)nn1)COCc1cn(CCCCCCN2C[C@H](O)[C@H](O)[C@H]2CO)nn1)c1cc(C(=O)NC(COCc2cn(CCCCCCN3C[C@H](O)[C@H](O)[C@H]3CO)nn2)(COCc2cn(CCCCCCN3C[C@H](O)[C@H](O)[C@H]3CO)nn2)COCc2cn(CCCCCCN3C[C@H](O)[C@H](O)[C@H]3CO)nn2)cc(C(=O)NC(COCc2cn(CCCCCCN3C[C@H](O)[C@H](O)[C@H]3CO)nn2)(COCc2cn(CCCCCCN3C[C@H](O)[C@H](O)[C@H]3CO)nn2)COCc2cn(CCCCCCN3C[C@H](O)[C@H](O)[C@H]3CO)nn2)c1` [Compound 2], in data set [2] (1 mM inhibitor, human leukocyte extracts), the “% Inhibition (1 mM)” value was 85 ^[a] %. Further, the half-inhibitory concentration (IC50) in data set [2] (human leukocyte extracts) is 85 ± 8 µM. Besides, the rp/n in data set [2] (positive MVE as previously reported) was 6.5 and 6.5–9.2. For the same compound, in data set [3] (setting [4]), the “rp (relative potency)” value is on record as 59 and the “rp/n (multivalent effect)” value was 6.5 ^[d]. In addition, the “rp (relative potency)” value in data set [3] (calculated with respect to the scaffold 38) is recorded as 0.8.

Take `OC[C@@H](C[C@H]1N[C@H](CO)[C@@H](O)[C@@H]1O)OC[C@H](O)C[C@H]1N[C@H](CO)[C@@H](O)[C@@H]1O` [Compound 3]: the IC50 in the data set on GALNS was 0.3 µM.

In data set [3] (setting [5]), `C#CCOCC(COCC#C)(COCC#C)NC(=O)c1cc(C(=O)NC(COCC#C)(COCC#C)COCC#C)cc(C(=O)NC(COCC#C)(COCC#C)COCC#C)c1` [Compound 12] returned an inhibition at 1000 µM of 25%.

As to `NC(COCc1cn(CCCCCCN2C[C@@H](O)[C@H](O)[C@H]2CO)nn1)(COCc1cn(CCCCCCN2C[C@@H](O)[C@H](O)[C@H]2CO)nn1)COCc1cn(CCCCCCN2C[C@@H](O)[C@H](O)[C@H]2CO)nn1` [Compound 26], the inhibition at 1000 µM in data set [3] (setting [5]) was less than 75%.

For `OC[C@@H]1[C@@H](O)[C@H](O)CN1CCCCCCn1cc(COCC(COCc2cn(CCCCCCN3C[C@@H](O)[C@H](O)[C@H]3CO)nn2)OCc2cn(CCCCCCN3C[C@@H](O)[C@H](O)[C@H]3CO)nn2)nn1` [Compound 28], the inhibition at 1000 µM in data set [3] (setting [5]) is less than 75%.

In turn, `OC[C@@H]1[C@@H](O)[C@H](O)CN1CCCCCCn1cc(COCC(COCc2cn(CCCCCCN3C[C@@H](O)[C@H](O)[C@H]3CO)nn2)(COCc2cn(CCCCCCN3C[C@@H](O)[C@H](O)[C@H]3CO)nn2)COCc2cn(CCCCCCN3C[C@@H](O)[C@H](O)[C@H]3CO)nn2)nn1` [Compound 30] came in with an inhibition at 1000 µM in data set [3] (setting [5]) of 35%.

On to `OCC1C(O)C(O)CN1CCCCCCn1cc(COCC(COCc2cn(CCCCCCN3CC(O)C(O)C3CO)nn2)(COCc2cn(CCCCCCN3CC(O)C(O)C3CO)nn2)COCc2cn(CCCCCCN3CC(O)C(O)C3CO)nn2)nn1` (centres unmarked) [Compound 31], for which the inhibition at 1000 µM in data set [3] (setting [5]) worked out at 73%.

With `O=C(CCCCC(=O)NC(COCc1cn(CCCCCCN2CC(O)C(O)C2CO)nn1)(COCc1cn(CCCCCCN2CC(O)C(O)C2CO)nn1)COCc1cn(CCCCCCN2CC(O)C(O)C2CO)nn1)NC(COCc1cn(CCCCCCN2CC(O)C(O)C2CO)nn1)(COCc1cn(CCCCCCN2CC(O)C(O)C2CO)nn1)COCc1cn(CCCCCCN2CC(O)C(O)C2CO)nn1` (centres unmarked) [Compound 33], the “rp/n (multivalent effect)” value in data set [3] (setting [4]) is listed as 2.4.

Take `O=C(NC(COCc1cn(CCCCCCN2CCCC2)nn1)(COCc1cn(CCCCCCN2CCCC2)nn1)COCc1cn(CCCCCCN2CCCC2)nn1)c1cc(C(=O)NC(COCc2cn(CCCCCCN3CCCC3)nn2)(COCc2cn(CCCCCCN3CCCC3)nn2)COCc2cn(CCCCCCN3CCCC3)nn2)cc(C(=O)NC(COCc2cn(CCCCCCN3CCCC3)nn2)(COCc2cn(CCCCCCN3CCCC3)nn2)COCc2cn(CCCCCCN3CCCC3)nn2)c1` [Compound 38]: the IC50 in data set [3] (human leukocyte extracts) was 0.07 ± 0.015 mM.

In data set [3] (human leukocyte extracts, cell prints mM under a µM head), `CC(=O)OCC1OC(OCCCCCCn2cc(CO)nn2)C(OC(C)=O)C(OC(C)=O)C1OC(C)=O` (centres unmarked) [Compound 48] had an IC50 of more than 1 mM. For the same compound, testing at 1000 µM in data set [3] (setting [5]) gave an inhibition of 16%.

`O=C(NC(COCc1cn(CCN2C[C@@H](O)[C@H](O)[C@H]2CO)nn1)(COCc1cn(CCN2C[C@@H](O)[C@H](O)[C@H]2CO)nn1)COCc1cn(CCN2C[C@@H](O)[C@H](O)[C@H]2CO)nn1)c1ccc([N+](=O)[O-])cc1` [Compound 51]: 1000 µM produced 49% inhibition in data set [3] (setting [5]).

With `OCC1C(O)C(O)C2CC(n3cc(COCC(COCc4cn(C5CC6C(O)C(O)C(CO)N6C5)nn4)(COCc4cn(C5CC6C(O)C(O)C(CO)N6C5)nn4)COCc4cn(C5CC6C(O)C(O)C(CO)N6C5)nn4)nn3)CN12` (centres unmarked) [Compound 54], the inhibition at 1000 µM in data set [3] (setting [5]) turned out to be 9%.

Take `CCCCCCCCN1C[C@@H](O)C(O)[C@H](O)C1` [Compound 55]: in data set [3] (1 mM inhibitor, human leukocyte extracts, pH 4.3, 37 °C, 17 h), the “% Inhibition (1 mM)” value amounted to 33%.

For the compound `CC(C)C[C@H]1C(=O)N2CCC[C@H]2[C@]2(O)O[C@](NC(=O)[C@@H]3C=C4c5cccc6[nH]c(Br)c(c56)C[C@H]4N(C)C3)(C(C)C)C(=O)N12` [bromocriptine], in the data set on rhGALNS, the “effect on activity and thermostability of rhGALNS” value (“effect … of rhGALNS” below) is “increase the activity and thermostability of rhGALNS”.

For `O=C1[C@H](CC[C@H](O)c2ccc(F)cc2)[C@@H](c2ccc(O)cc2)N1c1ccc(F)cc1` [ezetimibe], the “effect … of rhGALNS” value with rhGALNS was “increase the activity and thermostability of rhGALNS”.

For `O=C(Nc1cccc2c(=O)cc(-c3nnn[nH]3)oc12)c1ccc(OCCCCc2ccccc2)cc1` [pranlukast], the “effect … of rhGALNS” value in the data set with rhGALNS is “increase the activity and thermostability of rhGALNS”.

What is called IC50 is the concentration at which inhibition is half-maximal. As a reminder, the inhibition is the drop in the measured response relative to a control, in per cent.
